Source: patent US8987314B2, “Amide, urea or sulfone amide linked benzothiazole inhibitors of endothelial lipase” (Bristol-Myers Squibb Company, priority 2012, dated 2015)
Where two headings read alike, the source gives them in different places.

Legend:
Endothelial lipase (EL) = Endothelial lipase (EL) (Homo sapiens (Human), UniProt Q9Y5X9); experiment: EL assay: endothelial lipase activity with fluorescent substrate A10070 in DMPG vesicles; format: biochemical
Method in brief: (§1)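 Compounds were preincubated with enzyme for 30 min at 37° C before FRET-substrate vesicles (A10070 in DMPG, 0.11 mole fraction) were added. Reaction rates were obtained from the 300–900 sec slope of fluorescence at 490/530 nm.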

hepatic lipase (HL) = hepatic lipase (HL) (Homo sapiens (Human), UniProt P11150); experiment: HL assay: hepatic lipase activity with fluorescent substrate A10070 in DMPG vesicles; format: biochemical
Sequence of hepatic lipase (HL) (P11150 23-499, species assumed): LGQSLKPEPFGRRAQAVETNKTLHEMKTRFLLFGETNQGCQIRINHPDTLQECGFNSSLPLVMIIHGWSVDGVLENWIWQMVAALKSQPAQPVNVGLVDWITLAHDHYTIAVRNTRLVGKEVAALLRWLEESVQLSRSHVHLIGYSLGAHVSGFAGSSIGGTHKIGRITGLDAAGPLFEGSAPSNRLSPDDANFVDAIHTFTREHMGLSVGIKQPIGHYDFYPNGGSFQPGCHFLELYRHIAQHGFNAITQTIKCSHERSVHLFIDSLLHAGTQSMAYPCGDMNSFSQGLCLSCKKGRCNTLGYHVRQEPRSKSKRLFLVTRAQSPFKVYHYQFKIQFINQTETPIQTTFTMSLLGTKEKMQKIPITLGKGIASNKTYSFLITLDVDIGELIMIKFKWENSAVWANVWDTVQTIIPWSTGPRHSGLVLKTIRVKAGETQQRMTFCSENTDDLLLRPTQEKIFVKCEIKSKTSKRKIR
Method in brief: as §1

[1] = EL from conditioned media of HT-1080 cells, 30 min incubation with compound at 37° C., A10070/DMPG vesicles
[2] = HL partially purified from conditioned media of COS cells, 30 min incubation with compound at 37° C., A10070/DMPG vesicles

Sequence of Endothelial lipase (EL) (Q9Y5X9 21-500): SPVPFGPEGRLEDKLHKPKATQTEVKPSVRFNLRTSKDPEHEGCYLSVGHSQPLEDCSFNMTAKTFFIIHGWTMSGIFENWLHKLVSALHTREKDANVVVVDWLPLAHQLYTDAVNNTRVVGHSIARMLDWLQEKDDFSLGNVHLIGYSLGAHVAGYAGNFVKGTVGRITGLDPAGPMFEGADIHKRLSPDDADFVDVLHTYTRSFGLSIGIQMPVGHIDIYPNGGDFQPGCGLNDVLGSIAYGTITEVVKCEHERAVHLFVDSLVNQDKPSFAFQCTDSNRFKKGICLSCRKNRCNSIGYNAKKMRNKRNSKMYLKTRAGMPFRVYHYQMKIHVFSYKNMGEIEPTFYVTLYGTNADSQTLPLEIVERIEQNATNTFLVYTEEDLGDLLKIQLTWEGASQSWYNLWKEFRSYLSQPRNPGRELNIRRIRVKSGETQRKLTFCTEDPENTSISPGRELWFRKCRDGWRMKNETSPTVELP

Molecule | IC50 (Endothelial lipase (EL)) [nM] | IC50 (hepatic lipase (HL)) [nM] | IC50 (Endothelial lipase (EL); [1]) [nM] | IC50 (hepatic lipase (HL); [2]) [nM]
COCCS(=O)(=O)C(C(=O)NCc1nnc(C)o1)c1nc2cc(F)c(-c3ccc(C(=O)N4CCCC4)cc3)cc2s1 (stereo not drawn) [Example B262, 2-{5-fluoro-6-[4-(pyrrolidine-1-carbonyl)phen-yl]-1,3-benzothiazol-2-yl}-2-(2-methoxy-ethanesulfonyl)-N-[(5-methyl-1,3,4-oxadiazol-2-yl)methyl]acetamide] | 102 | 374 | – | –
NS(=O)(=O)CCNC(=O)C(c1nc2ccc(-c3ccc(C(=O)N4CCOCC4)cc3)cc2s1)S(=O)(=O)CCN1CCOCC1 (stereo not drawn) [Example B157, 2-{6-[4-(4-Morpholinylcarbonyl)phenyl]-1,3-benzothiazol-2-yl}-2-{[2-(4-morpholinyl)ethyl]sulfonyl}-N-(2-sulfamoylethyl)acetamide] | – | – | < 10 | 147
CC1(O)CCN(C(=O)c2ccc(-c3ccc4nc(C(C(=O)NCCS(N)(=O)=O)S(C)(=O)=O)sc4c3)cc2)CC1 (stereo not drawn) [Example B176, 2-(6-(4-((4-hydroxy-4-methyl-1-piperidinyl)car-bonyl)phenyl)-1,3-benzothiazol-2-yl)-2-(methylsulfonyl)-N-(2-sulfamoylethyl)acetamide] | < 10 | 92 | – | –
NS(=O)(=O)CCNC(=O)C(c1nc2ccc(-c3ccc(C(=O)N4CCOCC4)cc3)cc2s1)S(=O)(=O)Cc1ccc(C(F)(F)F)cc1 (stereo not drawn) [Example B293, 2-{6-[4-(morpholine-4-carbonyl)phenyl]-1,3-benzothiazol-2-yl}-N-(2-sulfamoylethyl)-2-{[4-(trifluoromethyl)phen-yl]methanesulfonyl}a-cetamide] | 146 | 328 | – | –
2-[6-(2-fluorophenyl)-1,3- benzothiazol-2-yl]-N-(2- sulfamoylethyl)-2-(3,3,3- trifluoropropanesulfonyl)a- cetamide [Example B307] | 3 | 1.5 | – | –
CC(=O)Nc1ccc(-c2ccc3nc(C(C(=O)NCCS(N)(=O)=O)S(=O)(=O)CCC(F)(F)F)sc3c2)cc1 (stereo not drawn) [Example B236, 2-[6-(4-acetamidophenyl)-1,3-benzothiazol-2-yl]-N-(2-sulfamoylethyl)-2-(3,3,3-trifluoropropane-sulfonyl)acetamide] | 0.8 | 55.3 | – | –
CS(=O)(=O)C(C(=O)NCCS(N)(=O)=O)c1nc2ccc(-c3ccc4c(c3)NC(=O)C4)cc2s1 (stereo not drawn) [Example B183, 2-(methylsulfonyl)-2-(6-(2-oxo-2,3-dihydro-1H-indol-6-yl)-1,3-benzothiazol-2-yl)-N-(2-sulfamoylethyl)a-cetamide] | < 10 | 139 | – | –
NS(=O)(=O)CCNC(=O)C(c1nc2ccc(-c3cnn(CCN4CCOCC4)c3)cc2s1)S(=O)(=O)CC1CC1 (stereo not drawn) [Example B77, 2-[(cyclopropylmethyl)sul-fonyl]-2-(6-{1-[2-(4-morpholinyl)ethyl]-1H-pyrazol-4-yl}-1,3-benzothiazol-2-yl)-N-(2-sulfamoylethyl)acetamide] | < 10 | 2260 | – | –
COCCS(=O)(=O)C(C(=O)NCCS(N)(=O)=O)c1nc2ccc(-c3ccc(C(=O)N4CC(F)(F)C4)cc3)cc2s1 (stereo not drawn) [Example B167, 2-(6-(4-((3,3-difluoro-1-azetidinyl)carbonyl)phen-yl)-1,3-benzothiazol-2-yl)-2-((2-methoxyethyl)sul-fonyl)-N-(2-sulfamoylethyl)acetamide] | < 10 | 79 | – | –
COCCS(=O)(=O)C(C(=O)NCc1nnc(C)o1)c1nc2cc(F)c(-c3ccc(C(=O)N4CCCC4)c(F)c3)cc2s1 (stereo not drawn) [Example B261, 2-{5-fluoro-6-[3-fluoro-4-(pyrrolidine-1-carbonyl)phen-yl]-1,3-benzothiazol-2-yl}-2-(2-methoxy-ethanesulfonyl)-N-[(5-methyl-1,3,4-oxadiazol-2-yl)methyl]acetamide] | 101 | 765 | – | –
CS(=O)(=O)C(C(=O)NCCS(N)(=O)=O)c1nc2ccc(-c3cnn(C4CCNCC4)c3)cc2s1 (stereo not drawn) [Example B98, 2-(Methylsulfonyl)-2-(6-(1-(4-piperidinyl)-1H-pyrazol-4-yl)-1,3-benzothiazol-2-yl)-N-(2-sulfamoylethyl)acetamide] | – | – | < 10 | 464
CC(=O)Nc1cccc(-c2ccc3sc(C(C(=O)NCCS(N)(=O)=O)S(C)(=O)=O)nc3c2)c1 (stereo not drawn) [Example B379, 2-[5-(3-acetamidophenyl)-1,3-benzothiazol-2-yl]-2-methanesulfonyl-N-(2-sulfamoylethyl)acetamide] | 0.5 | 83.7 | – | –
NS(=O)(=O)CCNC(=O)C(c1nc2ccc(-c3cccc(C(=O)N4CC[C@H](O)C4)c3)cc2s1)S(=O)(=O)CCC(F)(F)F (stereo partly drawn) [Example B344] | 13.1 | 22.2 | – | –
CS(=O)(=O)C(C(=O)NCCS(N)(=O)=O)c1nc2cc(-c3cccc(F)n3)ccc2s1 (stereo not drawn) [Example B380, 2-[5-(6-fluoropyridin-2-yl)-1,3-benzothiazol-2-yl]-2-methanesulfonyl-N-(2-sulfamoylethyl)acetamide] | 2 | 18.5 | – | –
NS(=O)(=O)CCNC(=O)C(c1nc2ccc(-c3cccc(C(=O)N4CC(F)C4)c3)cc2s1)S(=O)(=O)CCC(F)(F)F (stereo not drawn) [Example B336, 2-{6-[3-(3-fluoroazetidine-1-carbonyl)phenyl]-1,3-benzothiazol-2-yl}-N-(2-sulfamoylethyl)-2-(3,3,3-trifluoropropanesulfonyl)a-cetamide] | 8.2 | 22.6 | – | –
NS(=O)(=O)CCNC(=O)C(c1nc2ccc(-c3ccc(F)nc3)cc2s1)S(=O)(=O)CCN1CCOCC1 (stereo not drawn) [Example B313, 2-[6-(6-fluoropyridin-3-yl)-1,3-benzothiazol-2-yl]-2-[2-(morpholin-4-yl)ethanesulfonyl]-N-(2-sulfamoylethyl)acetamide] | 10.8 | 106 | – | –
COCCN(C)C(=O)c1ccc(-c2ccc3nc(C(C(=O)NCCS(N)(=O)=O)S(C)(=O)=O)sc3c2)cc1 (stereo not drawn) [Example B172, N-(2-Methoxyethyl)-N-methyl-4-(2-(1-(methylsulfonyl)-2-oxo-2-((2-sulfamoylethyl)amino)ethyl)-1,3-benzothiazol-6-yl)benzamide] | – | – | < 10 | 77
CS(=O)(=O)C(C(=O)NCCS(N)(=O)=O)c1nc2ccc(-c3ccc(C(N)=O)cc3)cc2s1 (stereo not drawn) [Example B214, 4-(2-{methanesulfonyl[(2-sul-famoylethyl)carbamoyl]meth-yl}-1,3-benzothiazol-6-yl)benzamide] | 1.6 | 160 | – | –
CS(=O)(=O)C(C(=O)NCCS(N)(=O)=O)c1nc2ccc(-c3ccc(C(=O)N4CCC(F)(F)CC4)cc3)cc2s1 (stereo not drawn) [Example B171, 2-(6-(4-((4,4-difluoro-1-piperidinyl)carbonyl)phen-yl)-1,3-benzothiazol-2-yl)-2-(methylsulfonyl)-N-(2-sulfamoylethyl)a-cetamide] | < 10 | 19 | – | –
CS(=O)(=O)C(C(=O)NCCS(N)(=O)=O)c1nc2ccc(-c3ccc(CO)cc3)cc2s1 (stereo not drawn) [Example B56, 2-(6-(4-(hydroxymethyl)phen-yl)-1,3-benzothiazol-2-yl)-2-(methylsulfonyl)-N-(2-sulfamoylethyl)a-cetamide] | < 10 | 122 | – | –
Cc1nnc(CNC(=O)C(c2nc3cc(C)c(-c4cnn(CCN5CCOCC5)c4)cc3s2)S(C)(=O)=O)o1 (stereo not drawn) [Example B83, 2-(5-methyl-6-(1-(2-(4-morpholinyl)ethyl)-1H-pyrazol-4-yl)-1,3-benzothiazol-2-yl)-N-((5-methyl-1,3,4-oxadiazol-2-yl)methyl)-2-(methylsulfonyl)acetamide] | 77 | 229 | – | –
COC1CN(C(=O)c2ccc(-c3ccc4nc(C(C(=O)NCCS(N)(=O)=O)S(=O)(=O)CCC(F)(F)F)sc4c3)cc2)C1 (stereo not drawn) [Example B301, 2-{6-[4-(3-methoxy-azetidine-1-carbonyl)phen-yl]-1,3-benzothiazol-2-yl}-N-(2-sulfamoyl-ethyl)-2-(3,3,3-trifluoro-propanesulfonyl)acetamide] | 7.8 | 113 | – | –
CS(=O)(=O)C(C(=O)NCCS(N)(=O)=O)c1nc2ccc(-c3ccc4c(c3)C(=O)NC4)cc2s1 (stereo not drawn) [Example B181, 2-(methylsulfonyl)-2-(6-(3-oxo-2,3-dihydro-1H-isoindol-5-yl)-1,3-benzothiazol-2-yl)-N-(2-sulfamoylethyl)acetamide] | < 10 | 145 | – | –
NS(=O)(=O)CCNC(=O)C(c1nc2ccc(C(=O)N3CCc4ccccc4C3)cc2s1)S(=O)(=O)CCC(F)(F)F (stereo not drawn) [Example B201, 2-(6-(3,4-dihydro-2(1H)-isoquinolinylcarbonyl)-1,3-benzothiazol-2-yl)-N-(2-sulfamoylethyl)-2-((3,3,3-trifluoropropyl)sulfonyl)a-cetamide] | 23 | 311 | – | –
NS(=O)(=O)CCNC(=O)C(c1nc2ccc(-c3ccc4c(c3)CNC4=O)cc2s1)S(=O)(=O)Cc1ccc(C(F)(F)F)cc1 (stereo not drawn) [Example B358, 2-[6-(1-oxo-2,3-dihydro-1H-isoindol-5-yl)-1,3-benzothiazol-2-yl]-N-(2-sulfamoylethyl)-2-{[4-(trifluoromethyl)phen-yl]methanesulfonyl}a-cetamide] | 3.7 | 67.6 | – | –
Cc1nnc(CNC(=O)C(c2nc3ccc(-c4ccc(O)cc4)cc3s2)S(=O)(=O)Cc2ccccc2)o1 (stereo not drawn) [Example B254, 2-[6-(4-hydroxyphenyl)-1,3-benzothiazol-2-yl]-N-[(5-methyl-1,3,4-oxadiazol-2-yl)methyl]-2-phenylmethanesulfonyl-acetamide] | 294 | 259 | – | –
NS(=O)(=O)CCNC(=O)C(c1nc2ccc(-c3cnn(CCN4CCOCC4)c3)cc2s1)S(=O)(=O)CCCC(F)(F)F (stereo not drawn) [Example B127, 2-(6-(1-(2-(4-morpholinyl)eth-yl)-1H-pyrazol-4-yl)-1,3-benzothiazol-2-yl)-N-(2-sulfamoylethyl)-2-((4,4,4-trifluorobutyl)sul-fonyl)acetamide] | < 10 | 933 | – | –
